Data on one compound can be found in patent US20200375929A1, “METHODS AND COMPOSITIONS FOR THE TREATMENT OF DISEASES ASSOCIATED WITH CANCER, INFLAMMATION, OR IMMUNE RESPONSE” (Washington University, priority 2017, published 2020).

The subject of one assay is STAT3. The assay can be described thus: STAT3 activation in LPS-stimulated BMDMs (western blot). The assay is classed as cell-based, mouse. As to the method:
BMDM were prepared from 6- to 12-week-old mice as described 1 and cultured in RMPI-1640 medium supplemented with 10% fetal bovine serum (FBS), 2 mM L-glutamine, and 100 U/mL penicillin-streptomycin and mouse recombinant M-CSF ([…], Peprotech). For experiments, cells were seeded at concentration 10^6 cells/mL in tissue culture plates of various formats. The cells were treated with DI (250 μM (unless stated otherwise), cat #592498, Sigma), DMF (50 μM (unless stated otherwise), cat #242926, Sigma), 3-(ethoxycarbonyl)but-3-enoic acid (3MI, 5 μM, Aris Pharmaceuticals Inc.), 4-ethoxy-2-methylene-4-oxobutanoic acid (MI, Aris Pharmaceuticals Inc.) for 12 h and activated with lipopolysaccharide (LPS; 100 ng/mL; E. coli 0111:B4, Sigma) for 1 h or as indicated. In some experiments cells were stimulated with combination of LPS (20 ng/mL) and IFN-γ (50 ng/mL; Peprotech). In some experiments cells were treated with α-tocopherol (AT, 10 μM; Sigma), MitoTEMPO (MT, 500 μM; Sigma), N-acetylcysteine (NAC, 1 mM, Sigma), ethylester of GSH (EtGSH; 1 mM, Santa Cruz) or buthionene sulfoximine (BSO, 500 μM, Sigma) alone or in combination with DI for 12 h. […]
Cells were lysed in RIPA Lysis Buffer System (Santa Cruz) and heat-denatured at 95° C. for 5 min in reducing sample buffer (BioRad). […] Non-specific binding was blocked with 5% skim milk (or 5% BSA when phospho-proteins were analyzed), and membranes were probed with primary antibodies specific to Nrf2 (#12721), HO-1 (#70081), IκBζ (mouse specific, #93726), IκBζ(#9244), ATF3 (#D2Y5W), IRAK1 (#4504; sensitivity of IRAK1 detection diminishes upon IRAK1 K63 ubiquitination), phospho-IKK (Ser176/180, #2697), p62/SQSTM1 (#5114), phospho-eIF2α (Ser51, #9721), eIF2α (#5324) from Cell Signaling; GAPDH (sc-25778), IκBα (sc-1643), ATF3 (sc-188), SDHA (sc-166909) from Santa Cruz; NQO1 (ab28947) from Abeam, followed by incubation with anti-rabbit-HRP (1:10,000; sc-2030) or anti-mouse-HRP (1:10,000; sc-2031) from Santa Cruz and Clarity western ECL substrate (Bio-Rad). […]
On the technique in general: A western blot detects proteins with antibodies after separation by electrophoresis.

For assay [1], the system named is imiquimod-induced psoriasis-like skin inflammation. The assay can be described thus: IMQ-induced psoriasis mouse model. The assay is classed as in vivo. The settings on record: DI daily i.p. As to the method: RNA from cultured cells was isolated using a Total RNA I kit (OMEGA). RNA from mouse ear skin was extracted using RNAeasy mini kit (Qiagen) after tissue disruption with sterile zirconium beads on a MagNA Lyser (Roche). Isolated RNA was reverse transcribed using AffinityScript Multi-Temp reverse transcriptase (Agilent Technologies) according to the manufacturer's protocol. Reactions were performed in 96-well plates using a SYBR Green PCR Master mix (Thermo Fisher Scientific) using a LightCycler® 96 or LightCycler® 480 (Roche Diagnostics). All assays were performed at least in duplicates, and reaction mixtures in 20 μL volumes (96-plate) or 10 μL volumes (384-plate) were processed under the following cycling conditions: initial 10 min denaturation at 95° C., followed by 40 cycles at 95° C. for 10 s, 60° C. for 1 min. Threshold cycle (CT) values for each sample were determined by automated threshold analysis. Expression levels of all mRNAs were normalized to reference gene Actb in BMDMs or to Rpl19 in mouse keratinocytes and tissue samples; to ACTB in human blood monocytes or RPLP0 in human keratinocytes. […] Average ear thickness in each sample was quantified from images obtained at the identical settings using ImageJ. Thickness at 5 equidistant places in each image was quantified and mean of these values was used to represent results in each mouse.

The next assay relates to EAE. The assay can be described thus: EAE model of multiple sclerosis. In kind it is in vivo, mouse. The settings on record: daily DI administration.
The subject of a further assay is IL6, IL12, IL1b, TNFα. The assay can be described thus: Cytokine production in LPS-stimulated BMDMs (ELISA). In kind it is cell-based, mouse. As for the experimental part:
BMDM were prepared from 6- to 12-week-old mice as described 1 and cultured in RMPI-1640 medium supplemented with 10% fetal bovine serum (FBS), 2 mM L-glutamine, and 100 U/mL penicillin-streptomycin and mouse recombinant M-CSF ([…], Peprotech). For experiments, cells were seeded at concentration 10^6 cells/mL in tissue culture plates of various formats. The cells were treated with DI (250 μM (unless stated otherwise), cat #592498, Sigma), DMF (50 μM (unless stated otherwise), cat #242926, Sigma), 3-(ethoxycarbonyl)but-3-enoic acid (3MI, 5 μM, Aris Pharmaceuticals Inc.), 4-ethoxy-2-methylene-4-oxobutanoic acid (MI, Aris Pharmaceuticals Inc.) for 12 h and activated with lipopolysaccharide (LPS; 100 ng/mL; E. coli 0111:B4, Sigma) for 1 h or as indicated. In some experiments cells were stimulated with combination of LPS (20 ng/mL) and IFN-γ (50 ng/mL; Peprotech). In some experiments cells were treated with α-tocopherol (AT, 10 μM; Sigma), MitoTEMPO (MT, 500 μM; Sigma), N-acetylcysteine (NAC, 1 mM, Sigma), ethylester of GSH (EtGSH; 1 mM, Santa Cruz) or buthionene sulfoximine (BSO, 500 μM, Sigma) alone or in combination with DI for 12 h. In some experiments BMDMs were treated with DI for 12 h and bafilomycin A (BafA, 100 nM, Sigma) or MG132 (10 μM, Selleckchem) were added 30 min before subsequent LPS stimulation.
Cytokines in cell supernatants were analyzed using DuoSet® ELISA kits according to manufacturer protocol (R&D Systems). The supernatants from BMDMs were diluted 1:4, from human blood monocytes 1:3.
On the technique in general: ELISA stands for enzyme-linked immunosorbent assay.

“Also recorded” adds a separate entry of the source.

`C=C(CC(=O)OC)C(=O)OC` [DI, dimethyl itaconate]: the “STAT3 activation (Y705 phosphorylation)” value in the assay with STAT3 (BMDMs, 12 h pretreatment) is recorded as “inhibits STAT3 activation”. Moreover, the “inhibition of STAT3 activation, Nrf2 KO compared with WT” value in the assay with STAT3 (Nrf2 KO BMDMs, DI 250 μM 12 h) is recorded as “no differences in extent of inhibition of STAT3 activation”. Further, the “IκBζ target gene expression (Defb4, S100a9, S100a7a, Lcn2) in ear skin” value in assay [1] (IMQ 7 days, qPCR) was “markedly reduced”. The psoriatic skin pathology entry in assay [1] (IMQ topically on ears 7 days) is given as “significant improvement of the psoriatic pathology; also recorded: no detectable skin changes”. Besides, the “clinical development of EAE” value in the assay with EAE was “ameliorated; also recorded: prevented clinical development of EAE”. The “IL-6 production in DI-treated Atf3−/− cells compared to WT” value in the assay with IL6, IL12, IL1b, TNFα (Atf3−/− BMDMs, DI, LPS 24 h) is “significantly increased IL-6 production”. In addition, the LPS-induced cytokine production result in the assay on IL6, IL12, IL1b, TNFα (BMDMs pretreated 12 h, then LPS) is “down-regulates production of IL6, IL12, and IL1b, but not TNFα”. For the same compound, the “DI-mediated IL-6 inhibition in Nrf2-deficient BMDMs” value in the assay on IL6, IL12, IL1b, TNFα (Nrf2-deficient BMDMs, DI, LPS 4 h) is listed as “did not alleviate”.
